Laboratory results: the supplement of paper PMC10307832

Experiments:
Assay in all cases: relative viability (nuclei count vs DMSO), 5 days (fraction); higher = more cells survive
[1] = compound: CCC1=CN=CN=C1N2CCN(CC2)CC3=NC4=C(N3)C=C(C=C4)C(F)(F)F + Cc1cc(Nc2cc(N3CCN(C)CC3)nc(Sc3ccc(NC(=O)C4CC4)cc3)n2)n[nH]1 [Tozasertib] (partner 0.1 µM)
Outline: (§1)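 Lung cancer cell lines in 1536-well plates were dosed by pin tool the day after seeding, either with one drug alone or with a fixed anchor-drug dose plus five library-drug doses (not always all listed) in √10 steps. After 5 days, cells were fixed and their nuclei stained in one step (final 0.05% Triton X-100, 1% formaldehyde, 1 ug/ml Hoechst), then counted on 4× images. Relative viability is the nuclei count in treated wells divided by that in vehicle wells. Values are medians of duplicate plates.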

Mirin + Dasatinib = compound: N=C1NC(=O)/C(=C/c2ccc(O)cc2)S1 [Mirin] + Cc1nc(Nc2ncc(C(=O)Nc3c(C)cccc3Cl)s2)cc(N2CCN(CCO)CC2)n1 [Dasatinib] (partner 0.075 µM)
Outline: as §1

[2] = compound: CCn1c(-c2nonc2N)nc2cnc(Oc3cccc(NC(=O)c4ccc(OCCN5CCOCC5)cc4)c3)cc21 + Nc1nc2[nH]cc(CCc3ccc(C(=O)N[C@@H](CCC(=O)O)C(=O)O)cc3)c2c(=O)[nH]1 [Pemetrexed] (partner 0.2 µM)
Outline: as §1

[3] = compound: CCn1c(-c2nonc2N)nc2cnc(Oc3cccc(NC(=O)c4ccc(OCCN5CCOCC5)cc4)c3)cc21 + CC(=O)Nc1cccc(-n2c(=O)n(C3CC3)c(=O)c3c(Nc4ccc(I)cc4F)n(C)c(=O)c(C)c32)c1 [Trametinib] (partner 0.02 µM)
Outline: as §1

Cell Line | relative viability ([1]; first compound 0.04 µM) | relative viability ([1]; first compound 0.1265 µM) | relative viability ([1]; first compound 0.4 µM) | relative viability ([1]; first compound 4 µM) | relative viability (Mirin + Dasatinib; first compound 0.25 µM) | relative viability (Mirin + Dasatinib; first compound 0.7906 µM) | relative viability (Mirin + Dasatinib; first compound 2.5 µM) | relative viability (Mirin + Dasatinib; first compound 7.906 µM) | relative viability (Mirin + Dasatinib; first compound 25 µM) | relative viability ([2]; first compound 0.04 µM) | relative viability ([2]; first compound 0.1265 µM) | relative viability ([2]; first compound 0.4 µM) | relative viability ([2]; first compound 1.265 µM) | relative viability ([2]; first compound 4 µM) | relative viability ([3]; first compound 0.04 µM) | relative viability ([3]; first compound 0.1265 µM) | relative viability ([3]; first compound 0.4 µM) | relative viability ([3]; first compound 1.265 µM) | relative viability ([3]; first compound 4 µM) | relative viability ([1]; first compound 1.265 µM)
NCI-H1650 | 0.482 | 0.471 | 0.273 | 0.331 | 0.307 | 0.294 | 0.306 | 0.256 | 0.231 | 0.343 | 0.326 | 0.389 | 0.334 | 0.343 | 0.668 | 0.543 | 0.52 | 0.37 | 0.496 | –
NCI-H1651 | 0.82 | 0.728 | 0.687 | 0.714 | 0.417 | 0.382 | 0.501 | 0.355 | 0.376 | 0.714 | 0.693 | 0.578 | 0.312 | 0.471 | 0.925 | 0.891 | 0.828 | 0.623 | 0.81 | 0.583
NCI-H1666 | 0.556 | 0.723 | 0.575 | 0.635 | 0.93 | 0.807 | 0.846 | 0.709 | 0.681 | 0.875 | 0.859 | 0.926 | 0.828 | 0.606 | 0.95 | 1.09 | 0.851 | 0.582 | 0.528 | 0.569
NCI-H1734 | 0.267 | 0.248 | 0.253 | 0.261 | 0.484 | 0.436 | 0.469 | 0.45 | 0.438 | 0.397 | 0.401 | 0.307 | 0.281 | 0.29 | 0.676 | 0.729 | 0.69 | 0.603 | 0.467 | 0.283
NCI-H1755 | 0.627 | 0.503 | 0.596 | 0.521 | 0.396 | 0.383 | 0.391 | 0.389 | 0.436 | 0.46 | 0.41 | 0.439 | 0.364 | 0.355 | 0.832 | 0.772 | 0.71 | 0.749 | 0.734 | 0.515
NCI-H1793 | 0.352 | 0.325 | 0.303 | 0.256 | 0.481 | – | 0.391 | 0.409 | 0.344 | 0.542 | 0.754 | 0.69 | 0.512 | 0.502 | 0.356 | 0.476 | 0.425 | 0.401 | 0.327 | –
NCI-H1915 | 0.458 | 0.412 | 0.429 | 0.356 | 0.308 | – | 0.332 | 0.342 | 0.31 | 0.497 | 0.494 | 0.448 | 0.183 | 0.174 | 0.267 | 0.31 | 0.309 | 0.227 | 0.221 | 0.356
NCI-H1944 | 0.269 | 0.249 | 0.212 | 0.223 | 0.218 | 0.244 | 0.2 | 0.218 | 0.224 | 0.654 | 0.632 | 0.577 | 0.367 | 0.301 | 0.409 | 0.365 | 0.441 | 0.467 | 0.359 | 0.218
NCI-H1975 | 0.732 | 0.785 | 0.679 | 0.689 | 0.437 | 0.482 | 0.384 | 0.417 | 0.354 | 0.29 | 0.269 | 0.23 | 0.188 | 0.178 | 0.261 | 0.256 | 0.219 | 0.154 | 0.176 | 0.61
NCI-H1993 | 0.627 | 0.509 | 0.597 | 0.493 | 0.518 | – | 0.678 | 0.455 | 0.556 | 0.649 | 0.616 | 0.526 | 0.579 | 0.526 | 0.441 | 0.427 | 0.464 | 0.439 | 0.509 | 0.566
NCI-H2009 | 0.778 | 0.698 | 0.727 | 0.678 | 0.292 | 0.341 | 0.323 | 0.227 | 0.139 | 0.916 | 0.817 | 0.757 | 0.607 | 0.492 | 0.199 | 0.192 | 0.161 | 0.16 | 0.142 | 0.746
NCI-H2023 | 0.33 | 0.383 | 0.343 | 0.325 | 0.562 | 0.541 | 0.548 | 0.463 | 0.335 | 0.231 | 0.155 | 0.214 | 0.163 | 0.153 | 0.708 | 0.652 | 0.474 | 0.317 | 0.237 | 0.297
NCI-H2085 | 0.815 | 0.71 | 0.794 | 0.633 | 0.229 | 0.207 | 0.28 | 0.252 | 0.237 | 0.888 | 0.591 | 0.601 | 0.591 | 0.664 | 0.634 | 0.57 | 0.521 | 0.574 | 0.535 | 0.698
NCI-H2087 | 0.26 | 0.243 | 0.221 | 0.146 | 1.06 | 0.869 | 0.752 | 0.958 | 0.677 | 0.777 | 0.653 | 0.642 | 0.603 | 0.596 | 0.209 | 0.293 | 0.203 | 0.228 | 0.231 | 0.182
NCI-H2126 | 0.837 | 0.812 | 0.813 | 0.832 | 0.631 | 0.58 | 0.601 | 0.517 | 0.514 | 0.8 | 0.715 | 0.51 | 0.765 | 0.642 | 0.61 | 0.594 | 0.562 | 0.583 | 0.57 | 0.734
NCI-H2170 | 0.719 | 0.74 | 0.648 | 0.643 | 0.551 | 0.498 | 0.519 | 0.489 | 0.468 | 0.263 | 0.263 | 0.272 | 0.223 | 0.244 | 0.885 | 0.941 | 0.96 | 0.926 | 0.974 | 0.662
